Reference: patent US20170165274A1, “COMPOSITION” (SHIELD TX (UK) LTD., priority 2014, published 2017)
Read-outs that look alike come from different tables or passages of the source.

Tests used:
nasal mucosa [1] = conditions: in vivo
grazed skin [2] = conditions: human, in vivo
[3] = Stability of iron hydroxypyrones in liquid as a function of pH; assay type: physicochemical; conditions: acid pH
Text: There is another advantage of a liquid formulation of a ferric tri (hydroxypyrone) in that there is no need to have an acidified preparation for either efficacy or stability. […] This is a significant difference between ferric pyrones in solution and ferrous salts used in medicine.
Unlike the ferrous products a maximum stability of the liquid ferric pyrones and ferrous products containing maltol is achieved in the pH range 5.5-8. With this knowledge the formulations developed require ingredients suited to this constraint and also standardisation of colour and taste for patient acceptability. At higher concentrations of active a suspension formulation may be preferred. Furthermore the excipients must not reduce the excellent bio-availability of iron from iron pyrone formulations.

grazed skin [4] = experiment: Short term exposure on grazed skin in two volunteers (irritation); conditions: 10^−4 M, short term (5 mins) exposure
nasal mucosa [5] = experiment: Contact with the nasal mucosa (irritation); conditions: contact for 10 minute periods

Row | Structure (SMILES) | Irritancy to nasal mucosa (nasal mucosa [1]) | Irritation of grazed skin (grazed skin [2]) | Stability behaviour in liquid [3] | Irritation of grazed skin (grazed skin [4]) | Irritancy to nasal mucosa (nasal mucosa [5])
1 | Cc1occc(=O)c1[O-].Cc1occc(=O)c1[O-].Cc1occc(=O)c1[O-].[Fe+3] [Fe[Maltol]3, ferric trimaltol] | neither iron tri-maltol or iron sulphate in contact with the nasal mucosa for 10 minute periods proved to be irritant | did not induce irritation | disproportionates at acid pH values |  | 
2 | O=S(=O)([O-])[O-].[Fe+2] [FeS04, iron sulphate] |  |  |  | did not induce irritation | neither iron tri-maltol or iron sulphate in contact with the nasal mucosa for 10 minute periods proved to be irritant
